PubChem BioAssay (NCI)
Where “and” joins values, the source holds several entries; their conditions need not be identical. Equal values may be shown once.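 Exposure lasted 48 hours, with cells grown in 96-well plates and compounds tested at five concentrations. GI50 is the concentration that inhibits growth by half. TGI: total growth inhibition.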

Tests used:
Assay in all cases: inhibition of tumour cell growth, NCI panel, 48 h
SK-MEL-2 melanoma = test system: SK-MEL-2 melanoma
MOLT-4 leukemia = test system: MOLT-4 leukemia
COLO 205 colon = test system: COLO 205 colon
OVCAR-3 ovarian = test system: OVCAR-3 ovarian
NCI/ADR-RES ovarian = test system: NCI/ADR-RES ovarian
KM12 colon = test system: KM12 colon
IGROV1 ovarian = test system: IGROV1 ovarian
NCI-H23 lung = test system: NCI-H23 lung
SK-OV-3 ovarian = test system: SK-OV-3 ovarian
CCRF-CEM leukemia = test system: CCRF-CEM leukemia
HCT-15 colon = test system: HCT-15 colon

Compound: CC(C)(C)OC(=O)NC(Cc1ccc(OCc2ccccc2)cn1)C(=O)N1CCCCC1 (stereo not drawn)
- TGI (SK-MEL-2 melanoma): 58.2 µM
- TGI (MOLT-4 leukemia): 47.7 µM
- TGI (COLO 205 colon): 33.3 µM
- TGI (OVCAR-3 ovarian): > 100 µM
- TGI (NCI/ADR-RES ovarian): 59.2 µM
- TGI (KM12 colon): > 100 µM
- TGI (IGROV1 ovarian): > 100 µM
- TGI (NCI-H23 lung): > 100 µM
- TGI (SK-OV-3 ovarian): > 100 µM
- TGI (CCRF-CEM leukemia): > 100 µM
- TGI (HCT-15 colon): > 100 µM

Compound: CCOC(=O)N/N=C(/N)c1cccc([N+](=O)[O-])c1
- TGI (SK-MEL-2 melanoma): > 100 µM
- TGI (MOLT-4 leukemia): > 100 µM
- TGI (COLO 205 colon): > 100 µM
- TGI (OVCAR-3 ovarian): > 100 µM
- TGI (NCI/ADR-RES ovarian): > 100 µM
- TGI (KM12 colon): > 100 µM
- TGI (IGROV1 ovarian): > 100 µM
- TGI (NCI-H23 lung): > 100 µM
- TGI (SK-OV-3 ovarian): > 100 µM
- TGI (CCRF-CEM leukemia): > 100 µM
- TGI (HCT-15 colon): > 100 µM

Compound: Cc1ccc(/C=C2\CCCc3ccccc3C2=O)cc1
- TGI (SK-MEL-2 melanoma): 9.07 µM
- TGI (MOLT-4 leukemia): 52.8 µM
- TGI (COLO 205 colon): 18.9 µM
- TGI (OVCAR-3 ovarian): 50.8 µM
- TGI (NCI/ADR-RES ovarian): 99.3 µM
- TGI (KM12 colon): 18.2 µM
- TGI (IGROV1 ovarian): 49.2 µM
- TGI (NCI-H23 lung): 89.1 µM
- TGI (SK-OV-3 ovarian): 58 µM
- TGI (CCRF-CEM leukemia): 36.5 µM
- TGI (HCT-15 colon): 27.2 µM

Compound: NC(N)=NCCC[C@H](N)C(=O)NCC(=O)N[C@@H](CC(=O)O)c1ncc(NC(=O)C(F)(F)F)o1
- TGI (SK-MEL-2 melanoma): > 25 µM
- TGI (MOLT-4 leukemia): > 25 µM
- TGI (COLO 205 colon): > 25 µM
- TGI (OVCAR-3 ovarian): > 25 µM
- TGI (NCI/ADR-RES ovarian): > 25 µM
- TGI (KM12 colon): > 25 µM
- TGI (IGROV1 ovarian): > 25 µM
- TGI (NCI-H23 lung): > 25 µM
- TGI (SK-OV-3 ovarian): > 25 µM
- TGI (CCRF-CEM leukemia): > 25 µM
- TGI (HCT-15 colon): > 25 µM

Compound: O=C1C=CC[C@H]2O[C@@H](COC(=O)Cc3ccccc3)C[C@H]2O1
- TGI (SK-MEL-2 melanoma): > 100 µM
- TGI (MOLT-4 leukemia): > 100 µM
- TGI (COLO 205 colon): > 100 µM
- TGI (OVCAR-3 ovarian): > 100 µM
- TGI (NCI/ADR-RES ovarian): > 100 µM
- TGI (KM12 colon): 42.4 µM
- TGI (IGROV1 ovarian): 54.6 µM
- TGI (NCI-H23 lung): 66.6 µM
- TGI (SK-OV-3 ovarian): > 100 µM
- TGI (CCRF-CEM leukemia): > 100 µM
- TGI (HCT-15 colon): 45.7 µM

Compound: CCOC(=O)CNc1c(OCc2ccccc2)c(=O)c1=O
- TGI (SK-MEL-2 melanoma): > 100 µM
- TGI (MOLT-4 leukemia): > 100 µM
- TGI (COLO 205 colon): > 100 µM
- TGI (OVCAR-3 ovarian): > 100 µM
- TGI (NCI/ADR-RES ovarian): > 100 µM
- TGI (KM12 colon): > 100 µM
- TGI (IGROV1 ovarian): > 100 µM
- TGI (NCI-H23 lung): > 100 µM
- TGI (SK-OV-3 ovarian): > 100 µM
- TGI (CCRF-CEM leukemia): > 100 µM
- TGI (HCT-15 colon): > 100 µM

Compound: O=c1cc(-c2ccc(F)cc2)[nH]c2ncc(Cl)cc12
- TGI (SK-MEL-2 melanoma): > 100 µM
- TGI (MOLT-4 leukemia): > 85.6 µM
- TGI (COLO 205 colon): > 100 µM
- TGI (OVCAR-3 ovarian): > 70.5 µM
- TGI (NCI/ADR-RES ovarian): > 88 µM
- TGI (KM12 colon): > 100 µM
- TGI (IGROV1 ovarian): > 100 µM
- TGI (NCI-H23 lung): > 100 µM
- TGI (SK-OV-3 ovarian): > 100 µM
- TGI (CCRF-CEM leukemia): 77.1 µM
- TGI (HCT-15 colon): > 100 µM

Compound: Nc1cc2[nH]c(=O)c(=O)[nH]c2cc1N
- TGI (SK-MEL-2 melanoma): > 100 µM
- TGI (MOLT-4 leukemia): > 100 µM
- TGI (COLO 205 colon): > 100 µM
- TGI (OVCAR-3 ovarian): > 100 µM
- TGI (NCI/ADR-RES ovarian): > 100 µM
- TGI (KM12 colon): > 100 µM
- TGI (IGROV1 ovarian): > 100 µM
- TGI (NCI-H23 lung): > 100 µM
- TGI (SK-OV-3 ovarian): > 100 µM
- TGI (CCRF-CEM leukemia): > 100 µM
- TGI (HCT-15 colon): > 100 µM

Compound: CCOc1cn(C2CC(O)C(CO)O2)c(=O)[nH]c1=O (stereo not drawn)
- TGI (SK-MEL-2 melanoma): > 100 µM
- TGI (MOLT-4 leukemia): > 100 µM
- TGI (COLO 205 colon): > 100 µM
- TGI (OVCAR-3 ovarian): > 100 µM
- TGI (NCI/ADR-RES ovarian): > 100 µM
- TGI (KM12 colon): > 100 µM
- TGI (IGROV1 ovarian): > 100 µM
- TGI (NCI-H23 lung): > 100 µM
- TGI (SK-OV-3 ovarian): > 100 µM
- TGI (CCRF-CEM leukemia): > 100 µM
- TGI (HCT-15 colon): > 100 µM

Compound: Oc1ccc(-c2nc(-c3cccnc3)c(-c3ccc(Cl)cc3)[nH]2)cc1
- TGI (SK-MEL-2 melanoma): 32.8 µM
- TGI (MOLT-4 leukemia): 18.1 µM
- TGI (COLO 205 colon): 23.9 µM
- TGI (OVCAR-3 ovarian): 28 µM
- TGI (NCI/ADR-RES ovarian): 36.9 µM
- TGI (KM12 colon): 25.7 µM
- TGI (IGROV1 ovarian): 23 µM
- TGI (NCI-H23 lung): 25.9 µM
- TGI (SK-OV-3 ovarian): 26.8 µM
- TGI (CCRF-CEM leukemia): 17.9 µM
- TGI (HCT-15 colon): 25.2 µM

Compound: N=C(N)c1ccc(C(NC(=O)CNS(=O)(=O)c2ccc3ccccc3c2)P(=O)(Oc2ccccc2)Oc2ccccc2)cc1 (stereo not drawn)
- TGI (SK-MEL-2 melanoma): > 100 µM
- TGI (MOLT-4 leukemia): 92.4 µM
- TGI (COLO 205 colon): > 100 µM
- TGI (OVCAR-3 ovarian): > 100 µM
- TGI (NCI/ADR-RES ovarian): > 100 µM
- TGI (KM12 colon): > 100 µM
- TGI (IGROV1 ovarian): > 100 µM
- TGI (NCI-H23 lung): > 100 µM
- TGI (SK-OV-3 ovarian): > 100 µM
- TGI (CCRF-CEM leukemia): > 100 µM
- TGI (HCT-15 colon): > 100 µM

Compound: O=Cc1c(C(=O)O)[nH]c(=O)[nH]c1=O
- TGI (SK-MEL-2 melanoma): > 100 µM
- TGI (MOLT-4 leukemia): > 100 µM
- TGI (COLO 205 colon): > 100 µM
- TGI (OVCAR-3 ovarian): > 100 µM
- TGI (NCI/ADR-RES ovarian): > 100 µM
- TGI (KM12 colon): > 100 µM
- TGI (IGROV1 ovarian): > 100 µM
- TGI (NCI-H23 lung): > 100 µM
- TGI (SK-OV-3 ovarian): > 100 µM
- TGI (CCRF-CEM leukemia): > 100 µM
- TGI (HCT-15 colon): > 100 µM

Compound: O=C(O)c1ccc([N+](=O)[O-])c2cc3cnccc3nc12
- TGI (SK-MEL-2 melanoma): 38.9 µM
- TGI (MOLT-4 leukemia): 29.7 µM
- TGI (COLO 205 colon): 40.4 µM
- TGI (OVCAR-3 ovarian): 36.4 µM
- TGI (NCI/ADR-RES ovarian): 80.9 µM
- TGI (KM12 colon): 44.4 µM
- TGI (IGROV1 ovarian): > 100 µM
- TGI (NCI-H23 lung): 62.9 µM
- TGI (SK-OV-3 ovarian): > 100 µM
- TGI (CCRF-CEM leukemia): 9.03 µM
- TGI (HCT-15 colon): 45 µM

Compound: O=C(NNC(=S)Nc1cccc(Cl)c1)c1cc(-c2ccccc2)nc2ccccc12
- TGI (SK-MEL-2 melanoma): 27.7 µM
- TGI (MOLT-4 leukemia): 74.6 µM
- TGI (COLO 205 colon): 29.2 µM
- TGI (OVCAR-3 ovarian): 34.3 µM
- TGI (NCI/ADR-RES ovarian): 56.2 µM
- TGI (KM12 colon): 49 µM
- TGI (IGROV1 ovarian): 47 µM
- TGI (NCI-H23 lung): 34.4 µM
- TGI (SK-OV-3 ovarian): 34.5 µM
- TGI (CCRF-CEM leukemia): 32.2 µM
- TGI (HCT-15 colon): 29.6 µM

Compound: CC(C)[Si](OC1=C(C(=O)N(C)c2cccc(Cl)c2)CCCC1)(C(C)C)C(C)C
- TGI (SK-MEL-2 melanoma): 33.2 µM
- TGI (MOLT-4 leukemia): > 100 µM
- TGI (COLO 205 colon): 35 µM
- TGI (OVCAR-3 ovarian): 27.6 µM
- TGI (NCI/ADR-RES ovarian): 26.3 µM
- TGI (KM12 colon): 26.5 µM
- TGI (IGROV1 ovarian): 32.3 µM
- TGI (NCI-H23 lung): 25.3 µM
- TGI (SK-OV-3 ovarian): 30.6 µM
- TGI (CCRF-CEM leukemia): 49 µM
- TGI (HCT-15 colon): 28.4 µM

Compound: Oc1c(CN2CCOCC2)ccc2cccnc12
- TGI (SK-MEL-2 melanoma): > 10 µM
- TGI (MOLT-4 leukemia): > 10 µM
- TGI (COLO 205 colon): > 10 µM
- TGI (OVCAR-3 ovarian): > 10 µM
- TGI (NCI/ADR-RES ovarian): 6.6 µM
- TGI (KM12 colon): > 10 µM
- TGI (IGROV1 ovarian): > 10 µM
- TGI (NCI-H23 lung): > 10 µM
- TGI (SK-OV-3 ovarian): > 10 µM
- TGI (CCRF-CEM leukemia): 7.56 µM
- TGI (HCT-15 colon): > 10 µM

Compound: CSc1ccc2c(cc1=O)[C@@H](NC(=O)c1ccc(N)cc1)CCc1cc(O)c(O)c(O)c1-2
- GI50 (SK-MEL-2 melanoma): 30.9 µM and 11.4 µM
- TGI (SK-MEL-2 melanoma): > 100 µM
- TGI (MOLT-4 leukemia): > 100 µM
- GI50 (COLO 205 colon): 31.7 µM and 4.04 µM
- TGI (COLO 205 colon): > 100 µM
- GI50 (OVCAR-3 ovarian): 17.5 µM and 4.17 µM
- TGI (OVCAR-3 ovarian): 40.8 µM and 19.5 µM
- TGI (NCI/ADR-RES ovarian): 57.3 µM and 61.6 µM
- GI50 (KM12 colon): 14.7 µM and 3.68 µM
- TGI (KM12 colon): 33.2 µM and 17 µM
- TGI (IGROV1 ovarian): > 100 µM
- GI50 (NCI-H23 lung): 22.3 µM and 10.4 µM
- TGI (NCI-H23 lung): 50.9 µM and 69.7 µM
- TGI (SK-OV-3 ovarian): > 100 µM
- TGI (CCRF-CEM leukemia): > 100 µM
- TGI (HCT-15 colon): 26 µM and 42.4 µM

Compound: O=C1C=C(C2=CC(=O)C(=O)c3ccccc32)c2ccccc2C1=O
- TGI (SK-MEL-2 melanoma): 72.3 µM
- TGI (MOLT-4 leukemia): 15.4 µM
- TGI (COLO 205 colon): 38.9 µM
- TGI (OVCAR-3 ovarian): 20.7 µM
- TGI (NCI/ADR-RES ovarian): > 100 µM
- TGI (KM12 colon): 39.8 µM
- TGI (IGROV1 ovarian): > 100 µM
- TGI (NCI-H23 lung): > 100 µM
- TGI (SK-OV-3 ovarian): > 100 µM
- TGI (CCRF-CEM leukemia): > 100 µM
- TGI (HCT-15 colon): > 100 µM
